Measurements: US20060122267A1, “Compositions and methods for attenuating mitochondria-mediated cell injury” (priority 2003, published 2006)

Columns and labels:
[1] = system: isolated adult rat cardiomyocytes; assay: Mitochondrial H+ leak in cardiomyocytes (respiration divided by TMRE fluorescence) after ischemia-reperfusion; format: cell-based; conditions: doses that protect cardiomyocyte viability
Procedure: Cardiomyocyte respiration rate was measured with an oxygen electrode, and membrane potential with the fluorescent dye TMRE (20 nM) in a fluorimeter. H^+ leak is essentially the amount of work the respiratory chain must do to maintain a given membrane potential, and experimentally is derived by dividing respiration by TMRE fluoresence. […] All data are means±SEM, N>3.
Adult rat cardiomyocytes were prepared by collagenase perfusion according to standard methods (Dai, et al. (2001) supra), yielding ˜4×10^6 cells per heart, >80% rod-shaped and viable. Incubations were in a shaking water bath at 37° C., each utilizing 5×10^5 cells in 5 mL of the KH buffers described below. For the control, cells were incubated for 2 hours in oxygenated KH buffer (95/5 O2/CO2). For ischemia-reperfusion treatment, cells were subjected to 30 minutes in oxygenated KH buffer, 1 hour in “ischemic” KH buffer (95/5 N2/CO2, pH 6.5, no glucose), and 30 minutes in oxygenated KH buffer. […] At the end of each protocol, cell viability was assayed (Trypan blue), and mitochondrial function determined (measurement of ΔΨm with the fluorescent probe TMRE, respiration with an O2 electrode, and S-nitrosothiol content by chemiluminescence and biotin-switch.

[2] = system: isolated adult rat cardiomyocytes; assay: Cardiomyocyte model of ischemia-reperfusion injury, cell viability by Trypan blue exclusion; format: cell-based; conditions: for protection of cardiomyocyte viability from ischemia-reperfusion injury: 1 hour ischemia, 30 minutes reoxygenation
Procedure: Isolated adult rat cardiomyocytes were subjected to 1 hour ischemia (anoxic, glucose free medium, pH 6.5) followed by 30 minutes reoxygenation (labeled “HR”). Cell viability was assayed by Trypan blue exclusion. […] All data are means±SEM, N>3.
Adult rat cardiomyocytes were prepared by collagenase perfusion according to standard methods (Dai, et al. (2001) supra), yielding ˜4×10^6 cells per heart, >80% rod-shaped and viable. Incubations were in a shaking water bath at 37° C., each utilizing 5×10^5 cells in 5 mL of the KH buffers described below. For the control, cells were incubated for 2 hours in oxygenated KH buffer (95/5 O2/CO2). For ischemia-reperfusion treatment, cells were subjected to 30 minutes in oxygenated KH buffer, 1 hour in “ischemic” KH buffer (95/5 N2/CO2, pH 6.5, no glucose), and 30 minutes in oxygenated KH buffer. For the ischemia-reperfusion injury and test compound group of cells, ischemia-reperfusion injury was carried out as described above with test compound present during the 30 minute equilibration prior to ischemia-reperfusion and absent during ischemia. […] At the end of each protocol, cell viability was assayed (Trypan blue), and mitochondrial function determined (measurement of ΔΨm with the fluorescent probe TMRE, respiration with an O2 electrode, and S-nitrosothiol content by chemiluminescence and biotin-switch.

mitochondrial complex I = target: T1, mitochondrial complex I (Rattus norvegicus, UniProt Q66HF1); assay: Complex I S-nitrosation: blue-native gel isolation followed by chemiluminescent S-nitrosothiol analysis; format: biochemical; conditions: 100 μM treatment
T1 construct: Rat heart mitochondria were isolated using differential centrifugation; from tissue; host or cells: rat heart mitochondria (male Sprague-Dawley rats)
T1 sequence (Q66HF1 24-727, one chain of several): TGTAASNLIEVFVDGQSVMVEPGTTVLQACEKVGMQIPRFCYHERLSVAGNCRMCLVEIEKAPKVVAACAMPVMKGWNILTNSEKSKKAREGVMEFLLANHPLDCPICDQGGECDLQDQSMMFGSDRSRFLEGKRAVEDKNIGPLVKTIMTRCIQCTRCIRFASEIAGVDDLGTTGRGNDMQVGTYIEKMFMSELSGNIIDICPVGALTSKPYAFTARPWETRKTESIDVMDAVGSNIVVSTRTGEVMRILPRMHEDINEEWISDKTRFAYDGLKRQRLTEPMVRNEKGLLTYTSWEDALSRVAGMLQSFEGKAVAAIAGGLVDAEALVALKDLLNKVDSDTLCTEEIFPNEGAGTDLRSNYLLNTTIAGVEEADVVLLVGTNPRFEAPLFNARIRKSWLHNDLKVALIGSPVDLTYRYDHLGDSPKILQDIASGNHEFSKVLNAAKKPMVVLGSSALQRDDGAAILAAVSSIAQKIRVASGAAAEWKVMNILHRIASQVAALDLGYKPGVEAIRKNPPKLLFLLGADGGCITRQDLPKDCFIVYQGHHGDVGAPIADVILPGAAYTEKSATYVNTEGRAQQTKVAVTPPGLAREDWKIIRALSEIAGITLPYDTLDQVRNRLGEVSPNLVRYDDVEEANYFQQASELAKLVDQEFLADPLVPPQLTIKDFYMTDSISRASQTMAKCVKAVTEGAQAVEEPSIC
Excerpt: Efforts to detect S-nitrosation within mitochondrial complex I itself relied on isolating the complex using a modified blue-native gel electrophoresis method, followed by chemiluminescent S-nitrosothiol analysis. […] Chemiluminescent analysis of excised gel bands gave an S-nitrosothiol profile of the gel, with four major peaks. The first of these was in a gel segment enriched in complex I.
Assuming heart mitochondria contain ˜50 pmol complex I per mg protein (Schagger & Pfeiffer (2001) J. Biol. Chem. 276:37861-37867), it was observed that S-nitrosation plateaud at a ˜7:1 mol/mol ratio (i.e., 7 mols S-nitrosothiol per mol complex I), while maximum complex I inhibition was ˜20-25%. This apparent mis-match between the stoichiometry of S-nitrosation (7:1) and the degree of inhibition (25%) may reflect S-nitrosation of complex I on multiple subunits. […]
Chemiluminescent analysis of S-nitrosothiol content was performed on samples originating from blue-native gels, intact mitochondria and SUPEROSE™ 6 chromatography fractions, according to known methodologies (Yang, et al. (2003) Free Radic. Res. 37:1-10). […] Each sample was run in duplicate and quantified using a standard curve created with known concentrations of NaNO2.

## N[C@@H](CCC(=O)N[C@@H](CSN=O)C(=O)NCC(=O)O)C(=O)O [S-nitrosoglutathione]
[1]
  effect on increase in mitochondrial H+ leak induced by ischemia-reperfusion: prevent large increases in H^+ leak
[2]
  concentration required to achieve levels of protection comparable to 10-20 μM S-nitroso-2-mercaptopropylglycine: 100 μM
[2]; 10 μM
  protection of cardiomyocyte viability from ischemia-reperfusion injury: no protection
[2]; 100 μM
  protection of cardiomyocyte viability from ischemia-reperfusion injury: significant protection
Mitochondrial complex I
  share of total S-nitrosothiol originating from complex I: ~20%
Mitochondrial complex I; per mg mitochondrial protein
  S-nitrosothiol originating from complex I: 350 pmols
